Consider 4 molecules from patent publication US4985434A, “7-substituted derivatives of 2-amino-3H,5H-pyrrolo(3,2-d)pyrimidin-4-ones and pharamceutical uses and compositions containing the same” (Biocryst, Inc., priority 1989, dated 1991).

A word on the IC50: it is the point on the concentration scale where inhibition reaches its midpoint.

Read-outs that look alike come from different tables or passages of the source.

Test [1] concerns the target T1, purine nucleoside phosphorylase (PNP) (Bos taurus, UniProt P55859).
T1 construct: using calf spleen as the enzyme source; from tissue; host or cells: calf spleen
T1 sequence (P55859 1-289): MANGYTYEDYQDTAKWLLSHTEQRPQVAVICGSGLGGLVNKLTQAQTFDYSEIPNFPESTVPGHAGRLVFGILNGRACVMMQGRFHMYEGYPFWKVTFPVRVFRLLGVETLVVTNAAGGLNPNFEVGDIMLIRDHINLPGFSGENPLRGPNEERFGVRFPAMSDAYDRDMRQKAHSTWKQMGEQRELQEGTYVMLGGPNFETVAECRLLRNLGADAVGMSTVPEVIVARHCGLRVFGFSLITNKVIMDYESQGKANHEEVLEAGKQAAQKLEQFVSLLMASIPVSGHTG
Description: PNP enzyme assay, radiochemical formation of [14C]-hypoxanthine from [14C]-inosine, calf spleen enzyme. The format is biochemical. The conditions noted are these: for enzyme-inhibition activity: tested as in Example 8.

A further test has as its system plasma inosine. Description: plasma inosine in Lewis Rats after intraperitoneal injection (HPLC). The conditions noted are these: 30 mg (IA), twice per day, 10% DMSO aqueous carrier, vs vehicle controls, other compounds per procedure of Example 16. The format is in vivo. How it is done: A pharmaceutical composition for intraperitoneal injection is prepared for testing the compound (IA). An intraperitoneal injection solution containing the compound (IA) is dissolved in an aqueous carrier that contains ten percent DMSO.
The compound (IA) is intraperitoneally injected into Lewis Rats via the test composition of Example 15 to provide 30 mg of the compound (IA), with an injection given twice per day. Controls are used, which receive only the vehicle. At specific times after administration, the animals are sacrificed and plasma samples are prepared. The plasma is extracted with cold 0.5N HClO4 and neutralized with solid NH4 HCO3. After removal of perchlorate salts, the extract is subjected to HPLC on a reversed phase column (Spherisorb ODSI).
Compounds prepared as in Examples 10-14 are each made into a pharmaceutical formulation in accordance with the preparation of Example 15 and the resultant injectable solutions are tested in accordance with the procedure of Example 16.

`Nc1nc2c(C3C=CCCC3)c[nH]c2c(=O)[nH]1` (centres unmarked) [IB, 2-amino-7-(2-cyclohexenyl)-3H, 5H-pyrrolo[3,2-d]pyrimidin-4-one]: the enzyme-inhibition activity result in test [1] (calf spleen PNP) is listed as “significant enzyme-inhibition activity”.

For `Nc1nc2c(C3CCCCC3)c[nH]c2c(=O)[nH]1` [ID, 2-amino-7-(cyclohexyl)-3H,5H-pyrrolo[3,2-d]-pyrimidin-4-one], the 50% inhibitory concentration (IC50) worked out at 145 µM in test [1] and 1.3 µM in test [1] (1 mM phosphate, calf spleen PNP, read-out: IC50).

As for `Nc1nc2c(C3=CCCCC3)c[nH]c2c(=O)[nH]1` [IA, 2-amino-7-(1-cyclohexenyl)-3H,5H-pyrrolo [3,2-d]pyrimidin-4-one], the “increase in plasma inosine” value with plasma inosine is given as “significant increase in plasma inosine”.

With `Nc1nc2c(C3CC=CCC3)c[nH]c2c(=O)[nH]1` (centres unmarked) [IC, 2-amino-7-(3-cyclohexenyl)-3H, 5H-pyrrolo[3,2-d]-pyrimidin-4-one], in test [1] (calf spleen PNP), the enzyme-inhibition activity entry is recorded as “significant enzyme-inhibition activity”.
